The source of these data is ChEMBL document CHEMBL1145258, “Geometry, topology, and atom-weights assembly descriptors to predicting A1 adenosine receptors agonists” (Bioorg Med Chem Lett, 2005).

This assay deals with T1, Adenosine receptor A1 (Rattus norvegicus, UniProt P25099).
T1 sequence (P25099 whole entry): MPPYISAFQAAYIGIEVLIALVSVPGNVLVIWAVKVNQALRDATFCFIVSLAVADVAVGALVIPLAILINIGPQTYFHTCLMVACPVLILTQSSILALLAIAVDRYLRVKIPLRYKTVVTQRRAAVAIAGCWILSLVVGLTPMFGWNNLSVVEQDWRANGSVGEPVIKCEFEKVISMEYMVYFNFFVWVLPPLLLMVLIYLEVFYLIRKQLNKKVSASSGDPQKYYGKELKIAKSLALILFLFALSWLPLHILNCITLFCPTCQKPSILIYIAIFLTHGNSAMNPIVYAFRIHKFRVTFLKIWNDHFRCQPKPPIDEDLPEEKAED
As to the kind of experiment: Inhibition of [3H]R-PIA binding to Adenosine A1 receptor from rat brain membrane.
Broadly, the Ki is the equilibrium dissociation constant of an inhibitor or competing ligand from its target. For the compound `CCNC(O)[C@H]1O[C@@H](n2cnc3c(NC(=O)Nc4ccc(S(=O)(=O)Nc5cc(C)on5)cc4)ncnc32)[C@H](O)[C@@H]1O` (some centres undefined), the Ki came to 901 nM. In the case of `CCNC(=O)[C@@H]1OC(n2cnc3c(NC(=O)Nc4ccc(S(=O)(=O)Nc5ncccn5)cc4)ncnc32)[C@@H](O)[C@H]1O` (some centres undefined) it was 725 nM; in that of `CCNC(=O)[C@H]1OC(n2cnc3c(NC(=O)c4ccc(Cl)cc4Cl)ncnc32)[C@H](O)[C@@H]1O` (some centres undefined), 16 nM; in that of `CCNC(=O)[C@H]1OC(n2cnc3c(NC(=O)Nc4ccc(S(=O)(=O)Nc5ccccn5)cc4)ncnc32)[C@H](O)[C@@H]1O` (some centres undefined), 292 nM.
